Reference: patent US6759416B2, “Anticancer conjugates of camptothecin and unsaturated fatty acids” (priority 2002, dated 2004)
Like-named read-outs stand apart in the source and are kept apart here.

Experiments:
L1210 leukemia = tested on: L1210 leukemia
Protocol: The compounds were tested in male BDF1 mice (18-22 g, 6 mice/group) bearing L1210 leukemia cells. Tumor lines were propagated in DBA/2 female mice with cell (10^5 cells/mouse) transfer every 7 days. Diluted ascitic fluid (0.1 mL) containing 10^5 leukemia cells were inoculated, i.p. in mice on day 0. Mice were injected with 0.1 mL of drug preparation.
A conjugate of HCPT and piperidinopiperidine, PP-HCPT, was synthesized, and its antitumor activity was evaluated against L1210 leukemia in mice.
DHA-HCPT was also tested using multiple doses (days 1, 5 and 9).

L1210 leukemia cells = assay: Anticancer activity assay in vitro: 48-h 3H-thymidine incorporation (proliferation) assay; assay type: cell-based, murine; conditions: for DNA fragmentation / apoptosis: L1210 cells, data not shown; for IC50: L1210 leukemia cells, 48-h proliferation assay, 3H-thymidine uptake, mean of three experiments
Protocol: L1210 leukemia cells (2.5×10^4cells/well) in RPMI-1640 medium supplemented with 10% FCS medium were seeded in a 96-well plate. Drugs (10 μL) at increasing concentrations were added to each well, and the total volume was adjusted to 0.1 mL/well using the same medium. HCPT was used as a positive control. The plate was incubated for 24 h at 37° C. followed by addition of 10 μL of ^3H-thymidine (20 μCi/mL). The plate was incubated for another 24 h. The cells were harvested, and radioactivity was counted using the Packard Matrix 96 beta counter. The results were expressed as the minimal concentration that inhibits ^3H-thymidine incorporation by 50% (IC50). Percent growth inhibition was calculated as follows: [(total cpm—experimental cpm)/total cpm]×100. […] Doxorubicin (Dox) was used as a positive control.

Lewis lung carcinoma = assay: Antitumor activity against Lewis lung carcinoma in mice; assay type: in vivo
Protocol: For example, at a dose of 120 mg/kg, it inhibited tumor growth by 83% while the bodyweight loss was only 10%. The parent HCPT inhibited tumor growth by 57% at a dose of 20 mg/kg with a 24% weight loss. The group treated with DHA-HCPT also lived longer.

colon 38 carcinoma = assay: Antitumor activity against colon 38 carcinoma in mice (single dose, early stage and late stage); assay type: in vivo; conditions: for weight loss: stated as loss
Excerpt: However, DHA-HCPT (weight loss of 16%) is less toxic than cisplatin (weight loss of 20%).
The first experiment was designed to evaluate the antitumor activity of the drugs against early tumor, i.e., the tumors were transplanted on day 0, and the drugs were given beginning the next day. The second experiment was designed to evaluate the drug's activity against the established tumor, i.e., the tumors were transplanted on day 0, and the drugs were given when the tumors grew to 3-4 mm in size.
In the late tumor model, at a dose of 100 mg/kg, DHA-HCPT inhibited tumor growth by 80% (Table 10).

[1] = 150 mg/kg i.p. on days 1, 5 and 9
[2] = L1210, 48-h cell growth inhibition assay
[3] = 125 mg/kg i.p. on days 1, 5 and 9
[4] = 120 mg/kg i.p. on days 1, 5 and 9
[5] = early stage, 67 mg/kg i.p. on days 1, 5 and 9
[6] = early stage, 100 mg/kg i.p. on days 1, 5 and 9
[7] = late stage, 100 mg/kg i.p. on days 9, 13 and 17
[8] = 100 mg/kg i.p. on days 1, 5, and 9
[9] = 5 mg/kg i.p. on days 1, 5, and 9

CC[C@@]1(O)C(=O)OCc2c1cc1n(c2=O)Cc2cc3cc(O)ccc3nc2-1 [HCPT, 10-hydroxycamptothecin, reference compound]
% ILS (L1210 leukemia; 15 mg/kg i.p. on day 1): 77%
% Weight change (L1210 leukemia; 15 mg/kg i.p. on day 1): −10%
bodyweight loss (L1210 leukemia; 15 mg/kg, one dose, stated as loss): 10%
% ILS (L1210 leukemia; 20 mg/kg i.p. on day 1): 108%
30-day survivors (L1210 leukemia; 20 mg/kg i.p. on day 1, 6 mice/group): 0
% Weight change (L1210 leukemia; 20 mg/kg i.p. on day 1, BDF1 mice, day 0 to lightest weight): −16%
DNA fragmentation / apoptosis (L1210 leukemia cells): caused DNA fragmentation and cells died by apoptosis
IC50 (L1210 leukemia cells): 230 nM
% ILS (Lewis lung carcinoma; 20 mg/kg i.p. on day 1): 16%
% TGI (Lewis lung carcinoma; 20 mg/kg i.p. on day 1): 57%
% Weight change (Lewis lung carcinoma; 20 mg/kg i.p. on day 1): −24%
Tumor weight (g ± SD) (Lewis lung carcinoma; 20 mg/kg i.p. on day 1, control 1.77 ± 0.89): 0.76 ± 0.59 g
weight loss (Lewis lung carcinoma; 20 mg/kg, one dose i.p., stated as loss): 24%

COc1cccc2c1C(=O)c1c(O)c3c(c(O)c1C2=O)C[C@@](O)(C(=O)CO)C[C@@H]3O[C@H]1C[C@H](N)[C@H](O)[C@H](C)O1 [Dox, Doxorubicin, reference compound]
IC50 (L1210 leukemia cells; Mus musculus): 180 ± 90 nM

CC[C@@]1(O)C(=O)OCc2c1cc1n(c2=O)Cc2cc3cc(OC(=O)N4CCC(N5CCCCC5)CC4)ccc3nc2-1 [PP-HCPT, 10-[4-(1-Piperidino)-1-piperidino]carbonyloxycamptothecin]
% ILS (L1210 leukemia; 37 mg/kg i.p. on day 1): 46%
% Weight change (L1210 leukemia; 37 mg/kg i.p. on day 1): 5%
30-day survivors (L1210 leukemia; 37 mg/kg i.p. on day 1, 6 mice/group): 0
% ILS (L1210 leukemia; 73 mg/kg i.p. on day 1): 77%
% Weight change (L1210 leukemia; 73 mg/kg i.p. on day 1): 2%
30-day survivors (L1210 leukemia; 73 mg/kg i.p. on day 1, 6 mice/group): 0
% ILS (L1210 leukemia; [1]): 123%
% Weight change (L1210 leukemia; [1]): −18%
fold less potent than DHA-HCPT (IC50) (L1210 leukemia cells; [2]): 16 fold
fold less potent than HCPT (IC50) (L1210 leukemia cells; [2]): 128 fold
IC50 (L1210 leukemia cells): 30000 nM

O=P1(N(CCCl)CCCl)NCCCO1 (stereo not drawn) [Cyclophosphamide, reference compound]
% ILS (L1210 leukemia; [3]): 173%
% Weight change (L1210 leukemia; [3]): −15%
30-day survivors (cures) (L1210 leukemia; 125 mg/kg i.p. on days 1, 5 and 9, 6 mice/group): 0
% ILS (L1210 leukemia; 200 mg/kg i.p. on day 1): 123%
% Weight change (L1210 leukemia; 200 mg/kg i.p. on day 1): −9%
30-day survivors (L1210 leukemia; 200 mg/kg i.p. on day 1, 6 mice/group): 0

CC/C=C\C/C=C\C/C=C\C/C=C\C/C=C\C/C=C\CCC(=O)Nc1ccc(CN2CCN(C(=O)Oc3ccc4nc5c(cc4c3)Cn3c-5cc4c(c3=O)COC(=O)[C@]4(O)CC)CC2)cc1 (stereo in doubt) [DHA-HCPT, 10-[4-[[4-(cis-4,7,10,13,16,19-Docosahexenoyl)amino]benzyl]-1-piperazino]carbonyl-oxycamptothecin]
% ILS (L1210 leukemia; 40 mg/kg i.p. on day 1): 108%
% Weight change (L1210 leukemia; 40 mg/kg i.p. on day 1): 2%
30-day survivors (L1210 leukemia; 40 mg/kg i.p. on day 1, 6 mice/group): 0
% ILS (L1210 leukemia; 60 mg/kg i.p. on day 1): 138%
% Weight change (L1210 leukemia; 60 mg/kg i.p. on day 1): 1%
30-day survivors (L1210 leukemia; 60 mg/kg i.p. on day 1, 6 mice/group): 0
% ILS (L1210 leukemia; [4]): 323%
% Weight change (L1210 leukemia; [4]): −12%
% ILS (L1210 leukemia; 180 mg/kg i.p. on day 1): 154%
% Weight change (L1210 leukemia; 180 mg/kg i.p. on day 1): −12%
weight loss (colon 38 carcinoma; 120 mg/kg given once): 16%
% TGI (colon 38 carcinoma; 120 mg/kg i.p. on day 1): 91%
% Weight change (colon 38 carcinoma; 120 mg/kg i.p. on day 1): −16%
Tumor weight (g ± SD) (colon 38 carcinoma; 120 mg/kg i.p. on day 1, control 1.20 ± 0.84): 0.11 ± 0.09 g
% TGI (colon 38 carcinoma; [5]): 43%
% Weight change (colon 38 carcinoma; [5]): −10%
Tumor weight (g ± SD) (colon 38 carcinoma; early stage, 67 mg/kg i.p. on days 1, 5 and 9, control 1.13 ± 0.39): 0.64 ± 0.50 g
% TGI (colon 38 carcinoma; [6]): 78%
% Weight change (colon 38 carcinoma; [6]): −12%
Tumor weight (g ± SD) (colon 38 carcinoma; early stage, 100 mg/kg i.p. on days 1, 5 and 9, control 1.13 ± 0.39): 0.25 ± 0.22 g
% TGI (colon 38 carcinoma; early stage, 150 mg/kg i.p. on days 1 and 5): 84%
Tumor weight (g ± SD) (colon 38 carcinoma; early stage, 150 mg/kg i.p. on days 1 and 5, control 1.13 ± 0.39): 0.18 ± 0.12 g
% TGI (colon 38 carcinoma; [7]): 80%
% Weight change (colon 38 carcinoma; [7]): −14%
Tumor weight (g ± SD) (colon 38 carcinoma; late stage, 100 mg/kg i.p. on days 9, 13 and 17, control 1.13 ± 0.39): 0.22 ± 0.14 g
% TGI (colon 38 carcinoma; late stage, 150 mg/kg i.p. on days 9 and 13): 79%
Tumor weight (g ± SD) (colon 38 carcinoma; late stage, 150 mg/kg i.p. on days 9 and 13, control 1.13 ± 0.39): 0.24 ± 0.18 g
fold less potent than HCPT (IC50) (L1210 leukemia cells; [2]): 8 fold
DNA fragmentation / apoptosis (L1210 leukemia cells): caused DNA fragmentation and cells died by apoptosis
IC50 (L1210 leukemia cells): 1800 nM
% ILS (Lewis lung carcinoma; 80 mg/kg i.p. on day 1): 23%
% TGI (Lewis lung carcinoma; 80 mg/kg i.p. on day 1): 48%
% Weight change (Lewis lung carcinoma; 80 mg/kg i.p. on day 1): −5%
Tumor weight (g ± SD) (Lewis lung carcinoma; 80 mg/kg i.p. on day 1, control 1.77 ± 0.89): 0.93 ± 0.53 g
% TGI (Lewis lung carcinoma; [8]): 88%
% Weight change (Lewis lung carcinoma; [8]): −9%
Tumor weight (g ± SD) (Lewis lung carcinoma; 100 mg/kg i.p. on days 1, 5, and 9, control 1.20 ± 0.61): 0.15 ± 0.10 g
% ILS (Lewis lung carcinoma; 120 mg/kg i.p. on day 1): 33%
% TGI (Lewis lung carcinoma; 120 mg/kg i.p. on day 1): 83%
% Weight change (Lewis lung carcinoma; 120 mg/kg i.p. on day 1): −10%
Tumor weight (g ± SD) (Lewis lung carcinoma; 120 mg/kg i.p. on day 1, control 1.77 ± 0.89): 0.31 ± 0.18 g
cures (Lewis lung carcinoma; 120 mg/kg, multiple doses (days 1, 5, and 9)): 50%
bodyweight loss (Lewis lung carcinoma; 120 mg/kg, one dose i.p., stated as loss): 10%

N.N.[Cl][Pt][Cl] [Cisplatin, reference compound]
% TGI (colon 38 carcinoma; 10 mg/kg i.p. on day 1): 88%
% Weight change (colon 38 carcinoma; 10 mg/kg i.p. on day 1): −20%
Tumor weight (g ± SD) (colon 38 carcinoma; 10 mg/kg i.p. on day 1, control 1.20 ± 0.84): 0.14 ± 0.07 g
weight loss (colon 38 carcinoma; given once (10 mg/kg per Table 8)): 20%
% TGI (Lewis lung carcinoma; [9]): 73%
% Weight change (Lewis lung carcinoma; [9]): −19%
Tumor weight (g ± SD) (Lewis lung carcinoma; 5 mg/kg i.p. on days 1, 5, and 9, control 1.20 ± 0.61): 0.32 ± 0.17 g
